The values below are quoted from earlier work in patent US10882883B2, “Derivatives of amphotericin B” (Sfunga Therapeutics, Inc., priority 2015, dated 2021).

For data set [1] the following is noted: Wilcock et al., J Am Chem Soc 135: 8488-91 (2013).
The next data set concerns yeast. The note with it: in vitro studies; WO 2014/165676.
For data set [2] the following is noted: Wilcock et al., J Am Chem Soc 135: 8488-91 (2013). This is another data set of the same source.

As for `CC1C=CC=CC=CC=CC=CC=CC=CC(OC2CC(N)C(O)C(C)O2)CC2OC(O)(CC(O)CC(O)C(O)CCC(O)CC(O)CC(=O)OC(C)C(C)C1O)CC(O)C2C(=O)O` (stereo not drawn) [C2′deOAmB], the ergosterol-binding ability entry in data set [1] is reported as “retains ergosterol-binding ability”. In the data set with yeast, the toxicity to yeast result is given as “toxic to yeast”. In data set [2], the binding to cholesterol result is on record as “no binding to cholesterol”.
